Experimental data taken from US9775835B2 (priority 2012, dated 2017).
Like-named read-outs stand apart in the source and are kept apart here.

Key:
HIV (strain NL4-3) = test: HIV cell based assay (Level 1 / Level 2 Screen; CFAR assay): 293T transfection, TZM-bl infection, luciferase; design: species or system HIV-1; settings: for Anti-HIV bioactivity of hits and analogs: second round with analogs, FIGS. 12 A, B, C
Method: Five hundred of the 1000 small molecule hits, having the highest binding affinity with the ASL's hypermodifications, were selected for screening at high concentration against HIV infected mammalian cells (FIG. 10). Briefly, toxicity was first assessed in 293T cells in 96-well plates (10^4 cells/well) by adding 50, 5 and 0.5 μM of small molecules in triplicate at each concentration. After two days, cells were assessed for poor growth versus control cells. Once the concentration of the small molecules at which the cells looked normal was established, these molecules were screened for anti-HIV activity through a transfection/infection protocol. An infectious molecular clone of HIV (strain NL4-3) was transfected into 293T cells using FuGene6 (Roche). After four hours, the cells were split into 96-well plates (10^4 cells/well) and the small molecules were added at the appropriate concentration in triplicate. After 48 hours of incubation of cells in the presence of the small molecules, virus-containing medium (50 μL) was removed from each well and transferred into a fresh 96-well plate containing TZM-bl cells for infection (10^4 cells/well). After 48 hours, the cells were assayed for luciferase expression. Controls were untransfected 293T cells and transfected cells without the small molecules added. Results from various small molecules with the best inhibition of HIV are shown in (FIG. 10). Active small molecules 2493, 9324, 8317, 2725, 3643, 2491, 12327, 14094, 12204, 12744, 12745, 12542, 18198, 18200, 8391, 6188, 16286 and 2712 have 80-95% inhibitory effect on the HIV propagation. These small molecules with bioactivity against HIV propagation are an example of some the hits further tested in a concentration-dependent screening.
Bioactive molecules selected in Level 1 Screen were tested using the cell based assay in a concentration (dose)-dependent manner for their ability to inhibit HIV propagation (FIG. 11). The HIV cell based assay experimental protocol described in Level 1 screen was used to conduct the Level 2 Screen. […] In addition to the concentration-dependent, cell based assay, the inhibitory activities of the active molecules identified in Screen Level 1 were also assessed using the MBS assay. This assay has been developed and standardized to mimic the unique properties characteristic of the HIV viral protein recruitment and preparation of the human host tRNA3^Lys as primer of reverse transcription. Thus, the cell-based assay and the “MBS” assay were used to confirm the mechanism of action of the hits against the functional interaction of htRNA3^Lys with HIV proteins. The MBS is a “mix and measure” assay that consists of the formation of a complex between the fluorescent peptide P6 and the fully modified anticodon stem and loop of htRNA3^Lys. The concentration of the small molecules was 150 μM i.e. 300 fold of that of P6. […] In the presence of various selected active molecules, inhibition of the complex between P6 and hASL3^Lys was observed (FIGS. 12 A, B and C). The results of these experiments allowed identification and concentration towards a smaller pool of active molecules.
In order to confirm the activity of the small molecules showing potential anti-HIV inhibition, a second round of testing using their analogs (˜20 analogs were chosen for each selected active small molecule) was initiated using the same cell based assay employed in Level 1 Screen and Level 2 Screen. […] The quality and structure of the small molecule hits and their respective analogs were confirmed by NMR and Liquid Chromatography coupled with Mass Spectrometry (LC-MS).
Dose response data of the active molecules were generated by running the biochemical and functional assays at varying concentration. The potency properties which is one of the characteristics that defines a hit, is evaluated based on the criteria that potency (IC50)<3 μM in the MBS assay and EC50<10 μM in the HIV cell based assay (See FIG. 19). […]

[1] = system: HIV strains NLA3, HXB and JR-CSF; test: HIV strain screening; format: cell-based; settings: FIG. 13
From the text: Small molecules were also screened for their effectiveness against various HIV strains. For example, the effects of small molecules of interest on HIV strains NLA3, HXB and JR-CSF were studied. […] FIG. 13. Further, small molecules were screened for their effectiveness against other HIV drugs that have different modes of action. For example, various small molecules of interest in the initial screen were studied for their effectiveness relative to protease inhibitors (Saquinavir by Roche) and reverse-transciptase inhibitors (Nevirapine by Boehringer Ingelheim) against various strains, including tri-therapy resistant HIV strains. FIGS. 13 and 14. In one specific study, the effect of small molecules on cell culture HIV viral propagation was compared to no drug (by reviewing % Relative Luminescence Unit (RLU)). Small molecules were also compared to Saquinavir and Nevirapine in both standard HIV strain and Tri-therapy resistant HIV strains. FIG. 14.

[2] = molecular target: hASL3^Lys-mcm^5s^2U34;ms^2t^6A37;Ψ39; test: Fluorescence quenching binding of P6 / NCp7 to fully modified hASL3^Lys; design: species or system human; settings: FIGS. 5 and 6
From the text: (§1) The phage-display selection of peptides was completed (randomized 15 mers, and 16 mers with cysteines at two sites for the possible generation of Zn^+2 ‘knuckles’ structures reminiscent of the HIV protein, NCp7) against the fully modified anticodon stem and loop domain of htRNA3^Lys with 5-methoxycarbonylmethyl-2-thiouridine at position 34, 2-methylthio-N^6-threonylcarbamoyladenosine-37 and pseudouridine-39 (hASL3^Lys-mcm^5s^2U34;ms^2t^6A37;Ψ39) covalently attached to microtiter avidin-plates with biotin. In reiterative and competitive phage-display library selections, the two libraries yielded 20 recurring peptide sequences that had reasonable solubility among 155 sequenced clones (Table 2). The hASL3^Lys binding properties of the peptides were characterized using chemically synthesized peptides with an N-terminal fluorescent reporter. One strongly binding, highly specific peptide (P6) was selected. Its ability to mimic the binding of the natural HIV protein, NCp7, to modified htRNA3^Lys was validated. […] Footprinting of P6 on the modified hASL3^Lys by high resolution mass spectrometry indicated conclusively that the anticodon and 3′-adjacent side of the loop were protected (Graham et al., supra).

unmodified ASL3^Lys = test: Fluorescence quenching binding of P6 / NCp7 to unmodified ASL3^Lys; design: species or system human; settings: modification-dependency
From the text: as §1

hASL3^Lys = test: Circular dichroism of NCp7 and P6 complexes with hASL3^Lys; design: species or system human; settings: decrease in CD ellipticity with increasing amounts, FIG. 7
[3] = system: hASL3^Lys-mcm^5s^2U34;ms^2t^6A37;Ψ39; test: Mechanism based secondary (MBS) assay: competition with fluorescent peptide P6 for hASL3^Lys; format: binding, human; settings: complex formation in the absence of small molecules
From the text: In order to identify a set of small molecule ‘hits’, that inhibit viral recruitment or viral preparation of htRNA3^Lys, the inventors developed a microtiter plate-based fluorescence assay. This mechanism based secondary (MBS) assay uses selected peptides that best mimic HIV proteins in their binding to htRNA3^Lys. The present invention uses the above-mentioned MBS assay to identify small molecule bioactive hits against a host cell RNA interaction with HIV proteins critical to viral replication. These hits can now be optimized into a completely different class of HIV drug, one that is far less likely to elicit drug resistance. The present invention is exploiting affinity selected peptides as tools to investigate and understand RNA chemistry and structure, including naturally occurring modifications, as identity elements for HIV protein recognition of the human tRNA3^Lys.
MBS assay is based on phage display selected peptides that mimic HIV proteins by binding with high affinity and specificity to only the portion of the htRNA3^Lys of interest, the hASL3^Lys (Graham et al., J. Mol. Biol. 2011, 410(4):698-715; Vendeix et al., J. Mol. Biol. 2012, 416(4):467-85). […] The MBS assay is readily amenable to thermodynamic and structural analyses and nucleotide and peptide amino acid changes for optimization. […]

[4] = Human immunodeficiency virus 1, NL43, read-out: IC 50 (units)

Q: Which IC50 (HIV (strain NL4-3); [4]) does the source give for `CC(C)c1ccc(OCC(=O)N2C(C)CCCC2C)c(Br)c1` (stereo not shown) [Compound 1668-1, 2-(2-bromo-4-isopropylphenoxy)-1-(2,6-dimethylpiperidin-1-yl)ethanone] here?
A: Its IC50 is 34 µM.

Q: Which “Anti-HIV bioactivity of hits and analogs” value (HIV (strain NL4-3)) does the source give for `CC1CCCC(C)N1C(=O)COc1ccc(C(C)(C)C)cc1Br` (stereo not shown) [Compound 1668-12, 2-(2-bromo-4-tert-butylphenoxy)-1-(2,6-dimethylpiperidin-1-yl)ethanone] here?
A: The value was “showed potential anti-HIV inhibition”.

Q: With `CC1(C)CC(NC(=O)COc2ccc3ccccc3c2Br)CC(C)(C)N1` [Compound 1668-17, 2-(1-bromonapthalen-2-yloxy)-N-(2,2,6,6-tetramethylpiperidin-4-yl)acetamide] as the compound, how does the “Anti-HIV bioactivity of hits and analogs” value (HIV (strain NL4-3)) read?
A: Its value is “some of the most bioactive inhibitors”.

Q: What does the source list for `Cc1cc(NC(=O)C(=O)NC2CC(C)(C)NC(C)(C)C2)ccc1Br` [Compound 1668-18, N^1-(4-bromo-3-methylphenyl)-N^2-(2,2,6,6-tetramethylpiperidin-4-yl)oxalimide]?
A: Anti-HIV bioactivity of hits and analogs (HIV (strain NL4-3)): some of the most bioactive inhibitors; Inhibiting infection of HIV strains relative to no addition of drug [1]: particularly effective

Q: How did the IC50 (HIV (strain NL4-3); Human immunodeficiency virus 1, NL43, other small molecule table, assay not given, values lie in the CFAR range of b151, read-out: IC 50) turn out when `NS(=O)(=O)c1cccc(NC(=O)Nc2ccc(Cl)c(Cl)c2)c1` [Compound 2491, 3-(3-(3,4-dichlorophenyl)ureido)benzenesulfon-amide] was run?
A: The IC50 was 75 µM.

Q: `COCCNC(=O)c1ccc2c(=O)n(CCC3=CCCCC3)c(=S)[nH]c2c1` [Compound 6188-1, 3-(2-cyclohexenylethyl)-N-(2-methoxyethyl)-4-oxo-2-thioxo-1,2,3,4-tetrahydroquinazoline-7-carboxamide] was tested. Which IC50 (HIV (strain NL4-3); Human immunodeficiency virus 1, NL43, quinazoline table, assay not given, value lies in the CFAR range of b151, read-out: IC50) did it give?
A: Its IC50 is 3.3 µM.

Q: `O=[N+]([O-])c1cccc(Nc2nc(O)nc(N3CCCCC3)n2)c1` [Compound 8391-5, 4-(3-nitrophenylamino)-6-(piperidin-1-yl)-1,3,5-triazin-2-ol] was tested. Which “Anti-HIV bioactivity of hits and analogs” value (HIV (strain NL4-3)) did it give?
A: The value was “showed potential anti-HIV inhibition”.

Q: For `c1ccc(Nc2nc(Nc3ccccc3)nc(N3CCNCC3)n2)cc1` [Compound 8391-6, N^2,N^4-diphenyl-6-(piperazin-1-yl)-1,3,5-triazine-2,4-diamine], which IC50 (HIV (strain NL4-3); [4]) is on record?
A: Its IC50 is 5.3 µM.

Q: Which “Anti-HIV bioactivity of hits and analogs” value (HIV (strain NL4-3)) does the source give for `COc1cc2c(cc1OC)C1=C(C#N)CC/C(=N\C(=O)c3ccco3)N1CC2` [Compound 18200-2, (E)-N-(1-cyano-9,10-dimethoxy-6,7-dihydro-2H-pyrido[2,1-a]isoquinolin-4(3H)-ylidene)furan-2-carboxamide] here?
A: The value was “some of the most bioactive inhibitors”.

Q: `COc1cc2c(cc1OC)C1=C(C#N)CCC(=O)N1CC2` [Compound 18200-3, 9,10-dimethoxy-4-oxo-3,4,6,7-tetrahydro-2H-pyrido[2,1-a]isoquinoline-1-carbonitrile] was tested. Which “Anti-HIV bioactivity of hits and analogs” value (HIV (strain NL4-3)) did it give?
A: The value was “some of the most bioactive inhibitors”.

Q: For `COc1cc2c(cc1OC)C1=C(C#N)CC/C(=N\C(=O)c3ccc(Cl)cc3)N1CC2` [Compound 18200-4, (E)-4-chloro-N-(1-cyano-9,10-dimethoxy-6,7-dihydro-2H-pyrido[2,1-a]isoquinolin-4(3H)-ylidene)benzamide], which IC50 (HIV (strain NL4-3); Human immunodeficiency virus 1, NL43, isoquinoline table, assay not given, value lies in the CFAR range of b151, read-out: IC 50) is on record?
A: Its IC50 is 14 µM.

Q: RVTHHAFLGAHRTVG [Compound P6] was tested. Which Kd [2] did it give?
A: The Kd was 0.45 ± 0.05 µM.

Q: And the “Kd with unmodified ASL3^Lys” value (unmodified ASL3^Lys)?
A: The value was “incalculable”.

Q: And the “Effect on hASL3^Lys structure by circular dichroism” value (hASL3^Lys)?
A: Its value is “denature the hASL3^Lys structure”.

Q: What about the “Quenching of the fluorescence of the fluorescein-tagged P6 by hASL3^Lys” value [3] of the same compound?
A: The value was roughly 80%.
